Reference: US10772893B2, “2-(morpholin-4-yl)-1,7-naphthyridines” (BAYER PHARMA AKTIENGESELLSCHAFT, priority 2014, dated 2020)
pIC50: −log10 of the molar value.

test system: HeLa cells; assay: Proliferation assay, crystal violet staining; conditions: Homo sapiens, 96 h, read-out: Inhibition of HeLa cell proliferation, HeLa cells, 4 days incubation
Description: After 24 hours, the cells of one plate (zero plate) were dyed with crystal violet (see below), whereas the medium of the other plates was replaced with fresh culture medium (200 μl) to which the test substances were added in various concentrations (0 μM, and also in the range of 0.001-10 μM; the final concentration of the solvent dimethyl sulphoxide was 0.1 or 0.5%). The cells were incubated for 4 days in the presence of the test substances. […] After washing the fixed cells three times with water, the plates were dried at room temperature. The cells were stained by adding 100 μl/measurement point of a 0.1% strength crystal violet solution (pH adjusted to pH 3 by adding acetic acid). After washing the cells three times with water, the plates were dried at room temperature. The dye was dissolved by adding 100 μl/measurement point of a 10% strength acetic acid solution. […] The percentage change in cell growth was calculated by normalizing the measured values to the absorbance values of the zero plate (=0%) and the absorbance of the untreated (0 W) cells (=100%). The IC50 values were determined by means of a four parameter fit.

| pIC50 | Structure (SMILES) |
| --- | --- |
| 6.25 | C[C@@H]1COCCN1c1cc(-c2ncco2)c2ccnc(-c3ccn[nH]3)c2n1 [Example 270, 2-[(3R)-3-methylmorpholin-4-yl]-4-(1,3-oxazol-2-yl)-8-(1H-pyrazol-5-yl)-1,7-naphthyridine] |
| 5.53 | C[C@@H]1COCCN1c1cc(N)c2ccnc(-c3ccn[nH]3)c2n1 [Example 267, 2-[(3R)-3-methylmorpholin-4-yl]-8-(1H-pyrazol-5-yl)-1,7-naphthyridin-4-amine] |
| 6.09 | C[C@@H]1COCCN1c1cc(C2=CCCN(C)C2)c2ccnc(-c3ccn[nH]3)c2n1 [Example 242, 2-[(3R)-3-methylmorpholin-4-yl]-4-(1-methyl-1,2,5,6-tetrahydropyridin-3-yl)-8-(1H-pyrazol-5-yl)-1,7-naphthyridine] |
| 6.35 | C[C@@H]1COCCN1c1cc(-c2ccn(CCO)n2)c2ccnc(-c3ccn[nH]3)c2n1 [Example 160, 2-(3-{2-[(3R)-3-methylmorpholin-4-yl]-8-(1H-pyrazol-5-yl)-1,7-naphthyridin-4-yl}-1H-pyrazol-1-yl)ethanol] |
| 5.58 | Cc1ccncc1-c1cc(N2CCOCC2)nc2c(-c3ccn[nH]3)nccc12 [Example 292, 4-(4-methylpyridin-3-yl)-2-(morpholin-4-yl)-8-(1H-pyrazol-5-yl)-1,7-naphthyridine] |
| 6.70 | C[C@@H]1COCCN1c1cc(-c2cncn2C)c2ccnc(-c3ccn[nH]3)c2n1 [Example 70, 4-(1-methyl-1H-imidazol-5-yl)-2-[(3R)-3-methylmorpholin-4-yl]-8-(1H-pyrazol-5-yl)-1,7-naphthyridine] |
| 6.38 | CCn1cc(-c2cc(N3CCOC[C@H]3C)nc3c(-c4ccn[nH]4)nccc23)cn1 [Example 261, 4-(1-ethyl-1H-pyrazol-4-yl)-2-[(3R)-3-methylmorpholin-4-yl]-8-(1H-pyrazol-5-yl)-1,7-naphthyridine] |
| < 5.52 | COc1ccc(-c2cc(N3CCOCC3)nc3c(-c4ccn[nH]4)nccc23)c(OC)c1 [Example 332, 4-(2,4-dimethoxyphenyl)-2-(morpholin-4-yl)-8-(1H-pyrazol-5-yl)-1,7-naphthyridine] |
| 5.41 | CCOc1cc(N2CCOCC2)nc2c(-c3cc[nH]n3)nccc12 [Example 43, 4-ethoxy-2-(morpholin-4-yl)-8-(1H-pyrazol-3-yl)-[1,7]naphthyridine] |
| < 5.52 | Clc1ccccc1-c1cc(N2CCOCC2)nc2c(-c3ccn[nH]3)nccc12 [Example 333, 4-(2-chlorophenyl)-2-(morpholin-4-yl)-8-(1H-pyrazol-5-yl)-1,7-naphthyridine] |
| 7.00 | Cc1cc(-c2cc(N3CCOC[C@H]3C)nc3c(-c4ccn[nH]4)nccc23)on1 [Example 112, 2-[(3R)-3-methylmorpholin-4-yl]-4-(3-methyl-1,2-oxazol-5-yl)-8-(1H-pyrazol-5-yl)-1,7-naphthyridine] |
| 5.56 | CS(=O)(=O)c1ccc(-c2cc(N3CCOCC3)nc3c(-c4ccn[nH]4)nccc23)cn1 [Example 3, 4-[6-(methylsulfonyl)pyridin-3-yl]-2-(morpholin-4-yl)-8-(1H-pyrazol-5-yl)-1,7-naphthyridine] |
| 5.60 | OCc1cccc(-c2cc(N3CCOCC3)nc3c(-c4ccn[nH]4)nccc23)c1 [Example 313, {3-[2-(morpholin-4-yl)-8-(1H-pyrazol-5-yl)-1,7-naphthyridin-4-yl]phenyl}methanol] |
| 6.68 | COc1ccc(-c2cc(N3CCOC[C@H]3C)nc3c(-c4ccn[nH]4)nccc23)cn1 [Example 95, 4-(6-methoxypyridin-3-yl)-2-[(3R)-3-methylmorpholin-4-yl]-8-(1H-pyrazol-5-yl)-1,7-naphthyridine] |

Second part, the molecule before the results:

| Structure (SMILES) | pIC50 |
| --- | --- |
| Cc1cnn(C)c1-c1cc(N2CCOC[C@H]2C)nc2c(-c3ccn[nH]3)nccc12 [Example 114, 4-(1,4-dimethyl-1H-pyrazol-5-yl)-2-[(3R)-3-methylmorpholin-4-yl]-8-(1H-pyrazol-5-yl)-1,7-naphthyridine] | 6.75 |
| C[C@@H]1COCCN1c1cc(-c2cncn2Cc2ccccc2)c2ccnc(-c3ccn[nH]3)c2n1 [Example 76, 4-(1-benzyl-1H-imidazol-5-yl)-2-[(3R)-3-methylmorpholin-4-yl]-8-(1H-pyrazol-5-yl)-1,7-naphthyridine] | 6.01 |
| C[C@@H]1COCCN1c1cc(-c2cnn(C3CC3)c2)c2ccnc(-c3ccn[nH]3)c2n1 [Example 254, 4-(1-cyclopropyl-1H-pyrazol-4-yl)-2-[(3R)-3-methylmorpholin-4-yl]-8-(1H-pyrazol-5-yl)-1,7-naphthyridine] | 6.51 |
| CC(C)n1cc(-c2cc(N3CCOC[C@H]3C)nc3c(-c4ccn[nH]4)nccc23)cn1 [Example 255, 2-[(3R)-3-methylmorpholin-4-yl]-4-[1-(propan-2-yl)-1H-pyrazol-4-yl]-8-(1H-pyrazol-5-yl)-1,7-naphthyridine] | 6.34 |
| CC(C)Oc1ncccc1-c1cc(N2CCOC[C@H]2C)nc2c(-c3ccn[nH]3)nccc12 [Example 219, 2-[(3R)-3-methylmorpholin-4-yl]-4-[2-(propan-2-yloxy)pyridin-3-yl]-8-(1H-pyrazol-5-yl)-1,7-naphthyridine] | 5.53 |
| CN1CC=C(c2cc(N3CCOCC3)nc3c(-c4ccn[nH]4)nccc23)CC1 [Example 14, 4-(1-methyl-1,2,3,6-tetrahydropyridin-4-yl)-2-(morpholin-4-yl)-8-(1H-pyrazol-5-yl)-1,7-naphthyridine] | 5.70 |
| COc1ncc(-c2cc(N3CCOC[C@H]3C)nc3c(-c4ccn[nH]4)nccc23)cc1C [Example 96, 4-(6-methoxy-5-methylpyridin-3-yl)-2-[(3R)-3-methylmorpholin-4-yl]-8-(1H-pyrazol-5-yl)-1,7-naphthyridine] | 6.77 |
| C[C@@H]1COCCN1c1cc(-c2ccnn2C2CC2)c2ccnc(-c3ccn[nH]3)c2n1 [Example 80, 4-(1-cyclopropyl-1H-pyrazol-5-yl)-2-[(3R)-3-methylmorpholin-4-yl]-8-(1H-pyrazol-5-yl)-1,7-naphthyridine] | 6.73 |
| C[C@@H]1COCCN1c1cc(-c2ccnn2C2COC2)c2ccnc(-c3ccn[nH]3)c2n1 [Example 133, 2-[(3R)-3-methylmorpholin-4-yl]-4-[1-(oxetan-3-yl)-1H-pyrazol-5-yl]-8-(1H-pyrazol-5-yl)-1,7-naphthyridine] | 5.97 |
| Cc1ccnc(F)c1-c1cc(N2CCOC[C@H]2C)nc2c(-c3ccn[nH]3)nccc12 [Example 90, 4-(2-fluoro-4-methylpyridin-3-yl)-2-[(3R)-3-methylmorpholin-4-yl]-8-(1H-pyrazol-5-yl)-1,7-naphthyridine] | 7.04 |
| C[C@@H]1COCCN1c1cc(-c2ccccc2N)c2ccnc(-c3ccn[nH]3)c2n1 [Example 71, 2-{2-[(3R)-3-methylmorpholin-4-yl]-8-(1H-pyrazol-5-yl)-1,7-naphthyridin-4-yl]aniline] | 6.78 |
| C[C@@H]1COCCN1c1cc(N=S(C)(=O)c2ccc(Br)cc2)c2ccnc(-c3ccn[nH]3)c2n1 (stereo partly drawn) [Example 277, 4-{[(4-bromophenyl)(methyl)oxido-λ^6-sulfanylidene]amino}-2-[(3R)-3-methylmorpholin-4-yl]-8-(1H-pyrazol-5-yl)-1,7-naphthyridine] | 6.40 |
| COCc1noc(C)c1-c1cc(N2CCOC[C@H]2C)nc2c(-c3ccn[nH]3)nccc12 [Example 135, 4-[3-(methoxymethyl)-5-methyl-1,2-oxazol-4-yl]-2-[(3R)-3-methylmorpholin-4-yl]-8-(1H-pyrazol-5-yl)-1,7-naphthyridine] | 5.74 |
